This passage reports IC50 results from patent US9108903B2, “Amides as modulators of sodium channels” (VERTEX PHARMACEUTICALS INCORPORATED, priority 2013, dated 2015).

Each structure is given as a SMILES string.

This assay has as its target human Nav1.8 (Homo sapiens (Human), UniProt Q9Y5Y9). Kind of assay: E-VIPR optical membrane potential assay with electrical stimulation. It is filed as cell-based. The conditions noted are these: HEK cells expressing human Nav1.8. An excerpt:
Assays for Detecting and Measuring NaV Inhibition Properties of Compounds E-VIPR Optical Membrane Potential Assay Method with Electrical Stimulation
Sodium channels are voltage-dependent proteins that can be activated by inducing membrane voltage changes by applying electric fields. The electrical stimulation instrument and methods of use are described in Ion Channel Assay Methods PCT/US01/21652, herein incorporated by reference and are referred to as E-VIPR. The instrument comprises a microtiter plate handler, an optical system for exciting the coumarin dye while simultaneously recording the coumarin and oxonol emissions, a waveform generator, a current- or voltage-controlled amplifier, and a device for inserting electrodes in well. Under integrated computer control, this instrument passes user-programmed electrical stimulus protocols to cells within the wells of the microtiter plate.
24 hours before the assay on E-VIPR, HEK cells expressing human Nav1.8 were seeded in 384-well poly-lysine coated plates at 15,000-20,000 cells per well. HEK cells were grown in media (exact composition is specific to each cell type and NaV subtype) supplemented with 10% FBS (Fetal Bovine Serum, qualified; GibcoBRL #16140-071) and 1% Pen-Strep (Penicillin-Streptomycin; GibcoBRL #15140-122). Cells were grown in vented cap flasks, in 90% humidity and 5% CO2.
100 mg/mL Pluronic F-127 (Sigma #P2443), in dry DMSO
Compound Plates: 384-well round bottom plate, e.g. Corning 384-well Polypropylene Round Bottom #3656
Cell Plates: 384-well tissue culture treated plate, e.g. Greiner #781091-1B
Bath1 buffer: Glucose 10 mM (1.8 g/L), Magnesium Chloride (Anhydrous), 1 mM (0.095 g/L), Calcium Chloride, 2 mM (0.222 g/L), HEPES 10 mM (2.38 g/L), Potassium Chloride, 4.5 mM (0.335 g/L), Sodium Chloride 160 mM (9.35 g/L).
Hexyl Dye Solution: Bath1 Buffer+0.5% β-cyclodextrin (make this prior to use, Sigma #C4767), 8 μM CC2-DMPE+2.5 μM DiSBAC6(3). To make the solution added volume of 10% Pluronic F127 stock equal to volumes of CC2-DMPE+DiSBAC6(3). The order of preparation was first mix Pluronic and CC2-DMPE, then added DiSBAC6(3) while vortexing, then added Bath1+β-Cyclodextrin.
1) Pre-spotted compounds (in neat DMSO) into compound plates. Vehicle control (neat DMSO), the positive control (20 mM DMSO stock tetracaine, 125 μM final in assay) and test compounds were added to each well at 160× desired final concentration in neat DMSO. Final compound plate volume was 80 μL (80-fold intermediate dilution from 1 μL DMSO spot; 160-fold final dilution after transfer to cell plate). Final DMSO concentration for all wells in assay was 0.625%.
2) Prepared Hexyl Dye Solution.
3) Prepared cell plates. On the day of the assay, medium was aspirated and cells were washed three times with 100 μL of Bath1 Solution, maintaining 25 μL residual volume in each well.
4) Dispensed 25 μL per well of Hexyl Dye Solution into cell plates. Incubated for 20-35 minutes at room temp or ambient conditions.
5) Dispensed 80 μL per well of Bath1 into compound plates. Acid Yellow-17 (1 mM) was added and Potassium Chloride was altered from 4.5 to 20 mM depending on the NaV subtype and assay sensitivity.
6) Washed cell plates three times with 100 μL per well of Bath1, leaving 25 μL of residual volume. Then transfered 25 uL per well from Compound Plates to Cell Plates. Incubated for 20-35 minutes at room temp/ambient condition.
7) Read Plate on E-VIPR. Used the current-controlled amplifier to deliver stimulation wave pulses for 10 seconds and a scan rate of 200 Hz. A pre-stimulus recording was performed for 0.5 seconds to obtain the un-stimulated intensities baseline. The stimulatory waveform was followed by 0.5 seconds of post-stimulation recording to examine the relaxation to the resting state.
Data was analyzed and reported as normalized ratios of emission intensities measured in the 460 nm and 580 nm channels. The response as a function of time was reported as the ratios obtained using the following formula: […]

For orientation: IC50 means the concentration that inhibits the measured activity by half. Higher therefore signals a need for much substance.

Chain of human Nav1.8 (Q9Y5Y9 whole entry): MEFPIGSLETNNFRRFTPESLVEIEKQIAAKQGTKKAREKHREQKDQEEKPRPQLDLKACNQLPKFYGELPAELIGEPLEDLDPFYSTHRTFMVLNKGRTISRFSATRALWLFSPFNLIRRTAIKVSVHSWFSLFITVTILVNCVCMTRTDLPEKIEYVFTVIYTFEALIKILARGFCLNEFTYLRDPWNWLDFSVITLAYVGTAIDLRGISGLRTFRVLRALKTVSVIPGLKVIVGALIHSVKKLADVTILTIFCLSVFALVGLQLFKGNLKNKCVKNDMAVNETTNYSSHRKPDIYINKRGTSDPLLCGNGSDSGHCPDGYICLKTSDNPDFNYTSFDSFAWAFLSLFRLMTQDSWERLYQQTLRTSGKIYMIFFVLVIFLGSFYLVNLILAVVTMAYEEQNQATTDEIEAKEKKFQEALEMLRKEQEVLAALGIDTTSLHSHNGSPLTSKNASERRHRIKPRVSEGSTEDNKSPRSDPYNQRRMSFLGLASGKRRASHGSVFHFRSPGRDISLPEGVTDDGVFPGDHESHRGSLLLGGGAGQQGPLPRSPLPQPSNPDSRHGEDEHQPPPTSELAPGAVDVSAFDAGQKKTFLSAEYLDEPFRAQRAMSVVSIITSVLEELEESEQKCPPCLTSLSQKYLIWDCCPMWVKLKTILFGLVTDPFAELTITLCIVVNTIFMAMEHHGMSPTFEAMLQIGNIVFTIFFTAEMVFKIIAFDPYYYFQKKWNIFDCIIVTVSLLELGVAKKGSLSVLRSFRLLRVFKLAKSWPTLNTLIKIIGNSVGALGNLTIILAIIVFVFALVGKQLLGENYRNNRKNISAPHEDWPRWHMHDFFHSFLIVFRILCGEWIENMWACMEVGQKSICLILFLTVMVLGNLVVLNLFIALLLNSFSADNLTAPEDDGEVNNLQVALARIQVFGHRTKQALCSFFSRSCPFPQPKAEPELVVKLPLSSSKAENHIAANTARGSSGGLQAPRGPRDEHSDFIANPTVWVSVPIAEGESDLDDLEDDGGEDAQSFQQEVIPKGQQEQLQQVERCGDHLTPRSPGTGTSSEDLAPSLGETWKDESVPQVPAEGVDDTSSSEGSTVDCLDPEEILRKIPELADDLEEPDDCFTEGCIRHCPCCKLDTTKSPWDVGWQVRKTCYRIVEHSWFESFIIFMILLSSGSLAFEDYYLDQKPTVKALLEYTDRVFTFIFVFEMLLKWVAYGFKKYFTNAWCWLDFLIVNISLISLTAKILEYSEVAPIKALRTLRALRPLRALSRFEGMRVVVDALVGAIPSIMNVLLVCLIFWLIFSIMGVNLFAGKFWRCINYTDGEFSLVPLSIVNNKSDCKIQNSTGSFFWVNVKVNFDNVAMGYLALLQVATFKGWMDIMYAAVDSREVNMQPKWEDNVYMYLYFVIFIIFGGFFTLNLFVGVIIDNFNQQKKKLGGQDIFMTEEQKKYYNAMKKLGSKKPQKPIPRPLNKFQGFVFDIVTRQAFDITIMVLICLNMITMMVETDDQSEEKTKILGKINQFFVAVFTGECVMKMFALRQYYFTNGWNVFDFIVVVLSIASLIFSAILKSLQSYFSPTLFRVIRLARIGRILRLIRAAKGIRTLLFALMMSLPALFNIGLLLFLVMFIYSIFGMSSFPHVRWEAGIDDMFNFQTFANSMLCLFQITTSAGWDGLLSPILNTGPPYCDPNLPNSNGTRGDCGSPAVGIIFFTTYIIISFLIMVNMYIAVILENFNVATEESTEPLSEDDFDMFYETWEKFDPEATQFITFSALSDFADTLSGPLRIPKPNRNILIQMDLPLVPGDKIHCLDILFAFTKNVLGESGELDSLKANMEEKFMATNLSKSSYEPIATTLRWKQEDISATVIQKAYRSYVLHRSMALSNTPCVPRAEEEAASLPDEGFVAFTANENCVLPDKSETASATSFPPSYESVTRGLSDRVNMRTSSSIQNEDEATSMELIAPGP

Take `O=C(O)c1ccc(NC(=O)c2cc(C(F)(F)F)ccc2Oc2ccccc2Cl)cn1` [Compound 63, 5-(2-(2-chlorophenoxy)-5-(trifluoromethyl)benzamido)picolinic acid]: the IC50 was determined as 430 nM.

The molecule `CC(C)Oc1ccccc1Oc1ccc(C(F)(F)F)cc1C(=O)Nc1ccc(C(=O)O)nc1` [Compound 64, 5-(2-(2-isopropoxyphenoxy)-5-(trifluoromethyl)benzamido)picolinic acid] gave a half-inhibitory concentration (IC50) of 755 nM.

For `COc1ccc(Oc2ccc(C(F)(F)F)cc2C(=O)Nc2ccc(C(=O)O)nc2)c(OC)c1` [Compound 65, 5-(2-(2,4-dimethoxyphenoxy)-5-(trifluoromethyl)benzamido)picolinic acid], the half-inhibitory concentration (IC50) amounted to 39 nM.

The molecule `COc1cc(Cl)ccc1Oc1ccc(C(F)(F)F)cc1C(=O)Nc1ccc(C(=O)O)nc1` [Compound 66, 5-(2-(4-chloro-2-methoxyphenoxy)-5-(trifluoromethyl)benzamido)picolinic acid] came in with a 50% inhibitory concentration (IC50) of 68 nM.

Take `COc1ccc(Oc2ccc(C(F)(F)F)cc2C(=O)Nc2ccc(C(=O)O)nc2)c(C)c1` [Compound 67, 5-(2-(4-methoxy-2-methylphenoxy)-5-(trifluoromethyl)benzamido)picolinic acid]: the midpoint of inhibition, the IC50, lay at 79 nM.

Molecule `COc1ccc(Oc2ccc(C(F)(F)F)cc2C(=O)Nc2ccc(C(=O)O)nc2)c(Cl)c1` [Compound 68, 5-(2-(2-chloro-4-methoxyphenoxy)-5-(trifluoromethyl)benzamido)picolinic acid] returned an IC50 of 135 nM.

As for `COc1c(F)cccc1Oc1ccc(C(F)(F)F)cc1C(=O)Nc1ccc(C(=O)O)nc1` [Compound 69, 5-(2-(3-fluoro-2-methoxyphenoxy)-5-(trifluoromethyl)benzamido)picolinic acid], the IC50 was 135 nM.

As to `O=C(O)c1ccc(NC(=O)c2cc(C(F)(F)F)ccc2Oc2ccccc2)cn1` [Compound 70, 5-(2-phenoxy-5-(trifluoromethyl)benzamido)picolinic acid], inhibition was half-maximal at 985 nM (IC50).

On to `O=C(O)c1ccc(NC(=O)c2cc(C(F)(F)F)ccc2Oc2ccc(F)cc2)cn1` [Compound 71, 5-(2-(4-fluorophenoxy)-5-(trifluoromethyl)benzamido)picolinic acid], for which inhibition was half-maximal at 285 nM (IC50).

`COc1cc(F)ccc1Oc1cc(C(F)(F)C(F)(F)F)ccc1C(=O)Nc1ccc(C(=O)O)nc1` [Compound 72, 5-(2-(4-fluoro-2-methoxyphenoxy)-4-(perfluoroethyl)benzamido)picolinic acid] displayed a half-inhibitory concentration (IC50) of 35 nM.

Take `O=C(O)c1ccc(NC(=O)c2ccc(C(F)(F)C(F)(F)F)cc2Oc2ccc(F)cc2)cn1` [Compound 73, 5-(2-(4-fluorophenoxy)-4-(perfluoroethyl)benzamido)picolinic acid]: the IC50 amounted to 110 nM.

For `O=C(O)c1ccc(NC(=O)c2c(Oc3ccc(F)cc3Cl)cccc2C(F)(F)F)cn1` [Compound 74, 5-(2-(2-chloro-4-fluorophenoxy)-6-(trifluoromethyl)benzamido)picolinic acid], the midpoint of inhibition, the IC50, lay at 405 nM.

Take `Cc1cc(F)ccc1Oc1ccc(C(F)(F)F)cc1C(=O)Nc1ccc(C(=O)O)nc1` [Compound 75, 5-(2-(4-fluoro-2-methylphenoxy)-5-(trifluoromethyl)benzamido)picolinic acid]: the IC50 was 108 nM.
